Values quoted from earlier work, collected in patent US7332525B2, “Method of treatment of prostate cancer and composition for treatment thereof” (priority 2003, dated 2008).

What was measured:
[1] = test system: metastasized, hormone refractory prostate cancer; details: high doses of tamoxifen alone; patients with metastasized and hormone refractory prostate cancer
[2] = test system: metastasized prostate cancer; details: in vivo

Compound | effect on prostate cancer cells [1] | effect on the progression of metastasized prostate cancer [2]
CC/C(=C(\c1ccccc1)c1ccc(OCCN(C)C)cc1)c1ccccc1.O=C(O)CC(O)(CC(=O)O)C(=O)O [tamoxifen, (Z)2-[4-(1,2-diphenyl-1-butenyl)phenoxy]-N, N-dimethylethanamine 2-hydroxy-1,2,3-propanetricarboxylate (1:1)] | some effect | 
CN(C)CCOc1ccc(C(=C(CCCl)c2ccccc2)c2ccccc2)cc1 [toremifene, 4-chloro-1,2-diphenyl-1-{4-[2-(N,N-dimethylamino)ethoxy]-phenyl}-1-butene] |  | some effect
O=C(c1ccc(OCCN2CCCCC2)cc1)c1c(-c2ccc(O)cc2)sc2cc(O)ccc12 [raloxifene, 6-hydroxy-2(4-hydroxyphenyl)-3-[4-(2-piperdinoethoxy)benzoyl]benzo[b]thiophene] |  | some effect
